For 22 compounds, IC50 results are on record in patent US9096598B2 (Merck Sharp & Dohme Corp., priority 2011, dated 2015).

For one experiment, the target named is T1, JAK3 (Homo sapiens, UniProt P52333).
T1 construct: recombinant purified GST-tagged catalytic domain for each enzyme; purchased Invitrogen M4290
Briefly: Jak Biochemical HTRF Assay (JAK3). The conditions noted are these: recombinant purified GST-tagged catalytic domain, [ATP] 2.9 μM, values given as range classes. The method, then: (§1) Jak Biochemical HTRF Assay Protocol
(§2) The ability of compounds to inhibit the activity of JAK1, JAK2, JAK3, and Tyk2 was measured using a recombinant purified GST-tagged catalytic domain for each enzyme (Invitrogen JAK1 #M4290, JAK2 #M4290, JAK3 #M4290, Tyk2 #M4290) in an HTRF format biochemical assay. The reactions employed a common peptide substrate, LCB-EQEDEPEGDYFEWLW-NH2 (in-house). The basic assay protocol is as follows: First, 250 nL of diluted compounds in DMSO were dispensed into the wells of a dry 384-well Black plate (Greiner #781076) using a Labcyte Echo 555 acoustic dispenser. Subsequent reagent additions employed an Agilent Bravo. Next, 18 μL of 1.11× enzyme and 1.11× substrate in 1× assay buffer (Invitrogen kinase buffer #PV3189, 2 mM DTT, 0.05% BSA) were added to the wells and shaken and then preincubated for 30 minutes at room temperature to allow compound binding to equilibrate. After equilibration, 2 μL of 10×ATP in 1× assay buffer was added to initiate the kinase reaction and the plates were shaken and then incubated at room temperature for 120 minutes. At the end of the incubation, 20 μL of 2× stop buffer (streptavidin-Dylight 650 (Thermo #84547B/100 mL), Eu-tagged pY20 antibody (Perkin Elmer #AD0067), EDTA, HEPES, and Triton) was added to quench the reaction. Plates were shaken and centrifuged and then incubated 60 minutes at room temperature and then read on a Perkin Elmer Envision (λex=337 nm, λem=665 and 615 nm, TRF delay time=20 μs). HTRF signal=10,000*665 nm reading/615 nm reading. After normalization to untreated controls, the percent inhibition of the HTRF signal at each compound concentration was calculated. The plot of percent inhibition versus the log of compound concentration was fit with a 4-parameter dose response equation to calculate IC50 values.
(§3) Final reaction conditions were:
(§4) Examples of the instant invention were evaluated in JAK2 and JAK3 in vitro binding assays. Table 13 tabulates the biological data disclosed for the instant invention as a range of JAK2 and JAK3 IC50 values (A: IC50≦10 nM; B: 10 nM>IC50≦500 nM C: IC50>500 nM).

In the next experiment the target is T2, JAK2 (Homo sapiens, UniProt O60674).
T2 construct: recombinant purified GST-tagged catalytic domain for each enzyme; purchased Invitrogen M4290
T2 sequence (O60674 849-1124 limits assumed): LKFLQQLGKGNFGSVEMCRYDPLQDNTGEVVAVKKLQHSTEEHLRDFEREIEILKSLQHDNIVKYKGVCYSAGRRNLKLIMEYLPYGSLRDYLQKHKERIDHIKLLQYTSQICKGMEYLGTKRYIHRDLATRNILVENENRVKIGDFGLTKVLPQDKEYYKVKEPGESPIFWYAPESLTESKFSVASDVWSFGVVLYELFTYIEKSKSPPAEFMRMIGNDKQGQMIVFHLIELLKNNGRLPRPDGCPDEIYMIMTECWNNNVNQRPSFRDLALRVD
Briefly: Jak Biochemical HTRF Assay (JAK2). As to conditions: recombinant purified GST-tagged catalytic domain, [ATP] 8.5 μM, values given as range classes. The protocol:
as §1, §2, §3, §4

T1 sequence (P52333 822-1111 limits assumed): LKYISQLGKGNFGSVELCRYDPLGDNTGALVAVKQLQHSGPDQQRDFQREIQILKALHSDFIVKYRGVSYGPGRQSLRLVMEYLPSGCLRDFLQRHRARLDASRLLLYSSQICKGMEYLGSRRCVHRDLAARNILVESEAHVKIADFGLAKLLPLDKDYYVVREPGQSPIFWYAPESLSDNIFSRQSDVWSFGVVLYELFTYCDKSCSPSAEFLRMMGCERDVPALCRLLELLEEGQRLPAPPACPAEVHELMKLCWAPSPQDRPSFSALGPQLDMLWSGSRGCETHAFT

With `CC(C)[C@H](Nc1cncc(-c2c[nH]c3ncc(OCCc4ccccn4)cc23)c1)C(=O)NCC(F)(F)F` [Example 2-12, N~2~-{5-[5-(2-pyridin-2-ylethoxy)-1H-pyrrolo[2,3-b]pyridin-3-yl]pyridin-3-yl}-N-(2,2,2-trifluoroethyl)valinamide], the IC50 at JAK3 is at most 10 nM; at JAK2, 10 to 500 nM.
The corresponding values for `CC(C)[C@H](Nc1cncc(-c2c[nH]c3ncc(C#N)cc23)c1)C(=O)NCC(F)(F)F` [Example 1-41, N~2~-[5-(5-cyano-1H-pyrrolo[2,3-b]pyridin-3-yl)pyridin-3-yl]-N-(2,2,2-trifluoroethyl)valinamide] are at most 10 nM and 10 to 500 nM.
The corresponding values for `COC(=O)Nc1cnc2[nH]cc(-c3cncc(NC(C(=O)NCC(F)(F)F)C(C)C)c3)c2c1` (centres unmarked) [Example 7-1, Methyl {3-[5-({3-methyl-1-oxo-1-[(2,2,2-trifluoroethyl)amino]butan-2-yl}amino)pyridin-3-yl]-1H-pyrrolo[2,3-b]pyridin-5-yl}carbamate] are 10 to 500 nM and 10 to 500 nM.
The corresponding values for `CC(C)(Nc1cncc(-c2c[nH]c3ncc(C#N)cc23)c1)C(=O)NCC(F)(F)F` [Example 1-44, N~2~-[5-(5-cyano-1H-pyrrolo[2,3-b]pyridin-3-yl)pyridin-3-yl]-2-methyl-N-(2,2,2-trifluoroethyl)alaninamide] are at most 10 nM and 10 to 500 nM.
Take `CC(C)[C@H](Nc1cncc(-c2c[nH]c3ncc(CNC(=O)N4CCCC4)cc23)c1)C(=O)NCC(F)(F)F` [Example 10-11, N~2~-[5-(5-{[(pyrrolidin-1-ylcarbonyl)amino]methyl}-1H-pyrrolo[2,3-b]pyridin-3-yl)pyridin-3-yl]-N-(2,2,2-trifluoroethyl)valinamide]: the IC50 is 10 to 500 nM on JAK3 and over 500 nM at JAK2.
Take `CC(C)[C@H](Nc1cncc(-c2c[nH]c3ncc(-c4cnn(C)c4)cc23)c1)C(=O)NCC(F)(F)F` [Example 8-2, N^2-{5-[5-(1-methyl-1H-pyrazol-4-yl)-1H-pyrrolo[2,3-b]pyridin-3-yl]pyridin-3-yl}-N-(2,2,2-trifluoroethyl)-L-valinamide]: the 50% inhibitory concentration (IC50) at JAK3 and on JAK2 was 10 to 500 nM throughout.
On to `C[C@@H](Nc1cnnc(-c2c[nH]c3ncc(C(N)=O)cc23)n1)C(=O)NCC(F)(F)F` [Example 1-14, 3-[5-({(1R)-1-methyl-2-oxo-2-[(2,2,2-trifluoroethyl)amino]ethyl}amino)-1,2,4-triazin-3-yl]-1H-pyrrolo[2,3-b]pyridine-5-carboxamide], for which the IC50 at JAK3 is at most 10 nM; at JAK2 it was 10 to 500 nM.
For `CC(C)(Nc1cncc(-c2c[nH]c3ncc(C(N)=O)cc23)c1)C(=O)NCC(F)(F)F` [Example 1-47, 3-[5-({1,1-dimethyl-2-oxo-2-[(2,2,2-trifluoroethyl)amino]ethyl}amino)pyridin-3-yl]-1H-pyrrolo[2,3-b]pyridine-5-carboxamide] the same measures were at most 10 nM and 10 to 500 nM.
Turning to `CC(C)[C@H](Nc1cncc(-c2c[nH]c3ncc(OCCN(C)C)cc23)c1)C(=O)NCC(F)(F)F` [Example 2-13, N~2~-(5-{5-[2-(dimethylamino)ethoxy]-1H-pyrrolo[2,3-b]pyridin-3-yl}pyridin-3-yl)-N-(2,2,2-trifluoroethyl)valinamide], the figures for the half-inhibitory concentration (IC50) at JAK3 and at JAK2 were 10 to 500 nM and over 500 nM, respectively.
As to `CCCNC(=O)Nc1cnc2[nH]cc(-c3cncc(NC(C(=O)NCC(F)(F)F)C(C)C)c3)c2c1` (centres unmarked) [Example 6-2, N~2~-(5-{5-[(propylcarbamoyl)amino]-1H-pyrrolo[2,3-b]pylidin-3-yl}pyridin-3-yl)-N-(2,2,2-trifluoroethyl)valinamide], the figures for the IC50 on JAK3 and at JAK2 were at most 10 nM and 10 to 500 nM, respectively.
Consider `CC(C)[C@@H](Nc1cncc(-c2c[nH]c3ncc(COCCN4CCCC4)cc23)c1)C(=O)NCC(F)(F)F` [Example 9-1, (R)-3-methyl-2-(5-(5-((2-(pyrrolidin-1-yl)ethoxy)methyl)-1H-pyrrolo[2,3-b]pyridin-3-yl)pyridin-3-ylamino)-N-(2,2,2-trifluoroethyl)butanamide], for which the IC50 on JAK3 and on JAK2 was 10 to 500 nM each time.
Turning to `CC1c2ncc(C(F)(F)F)n2CCN1c1cnnc(-c2c[nH]c3ncc(C(N)=O)cc23)n1` (centres unmarked) [Example 1-15, 3-{5-[8-methyl-3-(trifluoromethyl)-5,6-dihydroimidazo[1,2-a]pyrazin-7(8H)-yl]-1,2,4-triazin-3-yl}-1H-pyrrolo[2,3-b]pyridine-5-carboxamide], the values for the IC50 at JAK3 and on JAK2 were at most 10 nM and 10 to 500 nM, respectively.
For `COc1cnc2[nH]cc(-c3cncc(N[C@H](C)C(=O)NCC(F)(F)F)c3)c2c1` [Example 1-31, N~2~-[5-(5-methoxy-1H-pyrrolo[2,3-b]pyridin-3-yl)pyridin-3-yl]-N-(2,2,2-trifluoroethyl)-D-alaninamide] the same measures were at most 10 nM and 10 to 500 nM.
`CC(=O)NCc1cnc2[nH]cc(-c3cncc(N[C@H](C(=O)NCC(F)(F)F)C(C)C)c3)c2c1` [Example 10-5, N~2~-(5-{5-[(acetylamino)methyl]-1H-pyrrolo[2,3-b]pyridin-3-yl}pyridin-3-yl)-N-(2,2,2-trifluoroethyl)valinamide]: the concentration for half-maximal inhibition (IC50) at JAK3 was 10 to 500 nM; on JAK2 it was over 500 nM.
As for `CC(C)[C@@H](Nc1cnnc(-c2c[nH]c3ncc(C(N)=O)cc23)n1)C(=O)NCC(F)(F)F` [Example 1-18, 3-[5-({(1R)-2-methyl-1-[(2,2,2-trifluoroethyl)carbamoyl]propyl}amino)-1,2,4-triazin-3-yl]-1H-pyrrolo[2,3-b]pyridine-5-carboxamide], the IC50 is at most 10 nM at JAK3 and 10 to 500 nM on JAK2.
For `C[C@@H](Nc1cnnc(-c2c[nH]c3ncc(Cl)cc23)c1)C(=O)NCC(F)(F)F` [Example 1-24, N~2~-[6-(5-chloro-1H-pyrrolo[2,3-b]pyridin-3-yl)pyridazin-4-yl]-N-(2,2,2-trifluoroethyl)-D-alaninamide] the same measures were at most 10 nM and 10 to 500 nM.
As to `CC(=O)Nc1cnc2[nH]cc(-c3cncc(N[C@H](C(=O)NCC(F)(F)F)C(C)C)c3)c2c1` [Example 5-2, N^2-{5-[5-(acetylamino)-1H-pyrrolo[2,3-b]pyridin-3-yl]pyridin-3-yl}-N-(2,2,2-trifluoroethyl)valinamide], the IC50 on JAK3 is at most 10 nM; on JAK2, 10 to 500 nM.
For `CC(C)(O)[C@@H](Nc1cncc(-c2c[nH]c3ncc(Cl)cc23)c1)C(=O)NCC(F)(F)F` [Example 1-49, N~2~-[5-(5-chloro-1H-pyrrolo[2,3-b]pyridin-3-yl)pyridin-3-yl]-3-hydroxy-N-(2,2,2-trifluoroethyl)-D-valinamide] the same measures were at most 10 nM and 10 to 500 nM.
For `CCCC(=O)NCc1cnc2[nH]cc(-c3cncc(N[C@H](C(=O)NCC(F)(F)F)C(C)C)c3)c2c1` [Example 10-9, N~2~-(5-{5-[(butanoylamino)methyl]-1H-pyrrolo[2,3-b]pyridin-3-yl}pyridin-3-yl)-N-(2,2,2-trifluoroethyl)valinamide] the same measures were 10 to 500 nM and over 500 nM.
Regarding `CC(C)[C@@H](Nc1cnnc(-c2c[nH]c3ncc(Cl)cc23)n1)C(=O)NCC(F)(F)F` [Example 1-3, N~2~-[3-(5-chloro-1H-pyrrolo[2,3-b]pyridin-3-yl)-1,2,4-triazin-5-yl]-N-(2,2,2-trifluoroethyl)-D-valinamide], the figures for the IC50 on JAK3 and on JAK2 were at most 10 nM and 10 to 500 nM, respectively.
Take `C[C@@H](Nc1cncc(-c2c[nH]c3ncc(C(N)=O)cc23)c1)C(=O)NCC(F)(F)F` [Example 1-46, 3-[5-({(1R)-1-methyl-2-oxo-2-[(2,2,2-trifluoroethyl)amino]ethyl}amino)pyridin-3-yl]-1H-pyrrolo[2,3-b]pyridine-5-carboxamide]: the IC50 is at most 10 nM at JAK3 and 10 to 500 nM on JAK2.
The corresponding values for `CC(C)C(Nc1cncc(-c2c[nH]c3ncc(CNC(=O)C4CCCCC4)cc23)c1)C(=O)NCC(F)(F)F` (centres unmarked) [Example 10-3, N-({3-[5-({2-methyl-1-[(2,2,2-trifluoroethyl)carbamoyl]prop-yl}amino)pyridin-3-yl]-1H-pyrrolo[2,3-b]pyridin-5-yl}methyl)cyclohexanecar-boxamide] are 10 to 500 nM and over 500 nM.
